# According to ChEMBL document CHEMBL4411274, “Recent advances of tetrazole derivatives as potential anti-tubercular and anti-malarial agents” (Eur J Med Chem, 2019):
# Legend:
# [1] = system: Mycobacterium avium; assay: Antibacterial activity against Mycobacterium avium CNCTC My 330/88; format: functional
# [2] = system: Mycobacterium kansasii; assay: Antibacterial activity against Mycobacterium kansasii isolate 6509/96; format: functional
# [3] = system: Mycobacterium kansasii; assay: Antibacterial activity against Mycobacterium kansasii CNCTC My 235/80; format: functional
# [4] = system: Mycobacterium tuberculosis; assay: Antibacterial activity against Mycobacterium tuberculosis CNCTC My 331/88; format: functional
# [5] = system: CHO-K1; assay: Cytotoxicity against CHOK1 cells after 24 hrs by MTT assay; format: cell-based; conditions: Cricetulus griseus, CHO-K1, 24 h
# [6] = system: Mycobacterium tuberculosis; assay: Antibacterial activity against Mycobacterium tuberculosis H37Rv by MABA; format: functional
# [7] = system: Plasmodium falciparum; assay: Antimalarial activity against ring-stage chloroquine-susceptible Plasmodium falciparum 3D7 preincubated for 6 hrs followed by compound wash and measured after 66 hrs by Giemsa-staining based light microscopic analysis; format: functional, organism-based
# [8] = system: Plasmodium falciparum; assay: Antimalarial activity against ring-stage multidrug-resistant Plasmodium falciparum Dd2 preincubated for 6 hrs followed by compound wash and measured after 66 hrs by Giemsa-staining based light microscopic analysis; format: functional, organism-based
# [9] = system: Mycobacterium tuberculosis; assay: Antibacterial activity against Mycobacterium tuberculosis H37Rv by resazurin dye-based assay; format: functional
# [10] = system: Plasmodium falciparum; assay: Antimalarial activity against Plasmodium falciparum K2 infected in human erythrocytes assessed as parasitemia after 48 hrs by YOYO-1 staining-based flow cytometric analysis; format: functional, organism-based; conditions: K2, 48 h
# [11] = biological target: T1, Falcipain 2 (Plasmodium falciparum, UniProt Q9N6S8); assay: Inhibition of Plasmodium falciparum falcipain-2 preincubated for 30 mins followed by Z-Leu-Arg-AMC substrate addition and measured up to 15 mins by spectrofluorometric analysis
# T1 sequence (Q9N6S8 whole entry): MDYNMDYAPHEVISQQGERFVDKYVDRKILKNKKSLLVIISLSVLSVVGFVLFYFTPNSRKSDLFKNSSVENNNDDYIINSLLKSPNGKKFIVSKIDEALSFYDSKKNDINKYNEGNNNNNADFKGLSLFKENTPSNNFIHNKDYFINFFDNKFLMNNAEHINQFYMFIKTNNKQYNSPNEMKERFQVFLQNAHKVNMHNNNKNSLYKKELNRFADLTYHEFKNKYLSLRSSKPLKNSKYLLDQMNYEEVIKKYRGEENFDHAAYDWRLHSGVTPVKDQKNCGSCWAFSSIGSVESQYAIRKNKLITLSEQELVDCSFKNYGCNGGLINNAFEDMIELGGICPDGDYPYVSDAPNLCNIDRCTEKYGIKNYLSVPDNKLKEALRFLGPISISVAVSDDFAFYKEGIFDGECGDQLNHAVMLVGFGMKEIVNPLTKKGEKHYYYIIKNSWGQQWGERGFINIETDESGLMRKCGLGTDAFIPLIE
# [12] = biological target: T2, Cysteine protease falcipain-3 (Plasmodium falciparum, UniProt Q9NAW4); assay: Inhibition of Plasmodium falciparum falcipain-3 preincubated for 30 mins followed by Z-Leu-Arg-AMC substrate addition and measured up to 15 mins by spectrofluorometric analysis
# T2 sequence (Q9NAW4 whole entry): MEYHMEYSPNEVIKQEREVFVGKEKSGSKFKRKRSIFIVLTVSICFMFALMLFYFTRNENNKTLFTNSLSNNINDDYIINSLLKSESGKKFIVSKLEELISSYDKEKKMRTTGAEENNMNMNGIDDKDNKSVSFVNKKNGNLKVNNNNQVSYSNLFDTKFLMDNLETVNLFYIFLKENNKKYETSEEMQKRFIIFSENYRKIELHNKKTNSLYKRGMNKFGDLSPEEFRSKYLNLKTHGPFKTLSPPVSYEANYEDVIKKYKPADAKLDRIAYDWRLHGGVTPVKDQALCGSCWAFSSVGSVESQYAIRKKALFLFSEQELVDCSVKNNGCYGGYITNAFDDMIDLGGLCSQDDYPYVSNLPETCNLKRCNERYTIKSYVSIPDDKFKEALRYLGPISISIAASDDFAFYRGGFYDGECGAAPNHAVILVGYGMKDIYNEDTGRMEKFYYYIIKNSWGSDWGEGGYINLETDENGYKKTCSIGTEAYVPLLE
smiles,measurement,setting,value
C[C@]12CC[C@@H]3c4ccc(OCCCCCCCSc5nnnn5-c5ccc(Cl)cc5)cc4CC[C@H]3[C@@H]1CCC2=O,MIC,[1],≥ 500 µg/mL
same,MIC,[2],≥ 500 µg/mL
same,MIC,[3],≥ 500 µg/mL
same,MIC,[4],≥ 500 µg/mL
C[C@]12CC[C@@H]3c4ccc(OCCCCCCCSc5nnnn5-c5ccc(Cl)c(Cl)c5)cc4CC[C@H]3[C@@H]1CCC2=O,MIC,[1],≥ 500 µg/mL
same,MIC,[2],≥ 500 µg/mL
same,MIC,[3],≥ 500 µg/mL
same,MIC,[4],≥ 500 µg/mL
COc1cc(-c2nnnn2S(=O)(=O)c2ccc([N+](=O)[O-])cc2)ccc1OCC(O)(Cn1cncn1)c1ccc(Cl)cc1Cl (centres undefined),IC50,[5],> 150 µg/mL
same,MIC,[6],1.56 to 12.5 µg/mL
COc1cc(-c2nnnn2S(=O)(=O)c2ccc(Br)cc2)ccc1OCC(O)(Cn1cncn1)c1ccc(F)cc1F (centres undefined),IC50,[5],> 150 µg/mL
same,MIC,[6],3.12 µg/mL
COc1cc(-c2nnnn2S(=O)(=O)c2ccc([N+](=O)[O-])cc2)ccc1OCC(O)(Cn1cncn1)c1ccc(F)cc1F (centres undefined),IC50,[5],> 150 µg/mL
same,MIC,[6],12.5 µg/mL
C1C2CC3CC1CC(C2)C31OOC2(CCC(Nc3nnn[nH]3)CC2)O1 (centres undefined),IC50,[7],0.0028 µM
same,IC50,[8],0.0025 µM
C[C@H]1[C@H](OC(=O)CCC(=O)O)O[C@@H]2O[C@@]3(C)CC[C@H]4[C@H](C)CC[C@@H]1[C@@]24OO3 [ARTESUNATE],IC50,[7],0.0051 µM
same,IC50,[8],0.0046 µM
COc1ccc(C2C(Cl)C(=O)N2NC(=O)Cn2nnnc2-c2ccccc2)cc1 (centres undefined),MIC,[9],0.156 µg/mL
COc1cc(-c2nnnn2S(=O)(=O)c2ccc(OC(F)(F)F)cc2)ccc1OCC(O)(Cn1cncn1)c1ccc(Cl)cc1Cl (centres undefined),IC50,[5],> 150 µg/mL
same,MIC,[6],1.56 to 12.5 µg/mL
O=C(Cn1nnnc1-c1ccccc1)NN1C(=O)C(Cl)C1c1ccc([N+](=O)[O-])cc1 (centres undefined),MIC,[9],> 6.25 µg/mL
c1ccc(CSc2nnnn2-c2ccccc2)cc1,MIC,[1],8 to 250 µg/mL
same,MIC,[2],8 to 250 µg/mL
same,MIC,[3],8 to 250 µg/mL
same,MIC,[4],8 to 250 µg/mL
CCCCOc1ccc(-c2nnn(CC(=O)c3ccc(Cl)cc3)n2)cc1,IC50,[10],> 10 µM
same,IC50,[11],6.67 to 43.9 µM
same,IC50,[12],6.67 to 43.9 µM
Cc1ccc(-n2nnnc2SCCCCCCCOc2ccc3c(c2)CC[C@@H]2[C@@H]3CC[C@]3(C)C(=O)CC[C@@H]23)cc1,MIC,[1],≥ 500 µg/mL
same,MIC,[2],≥ 500 µg/mL
same,MIC,[3],≥ 500 µg/mL
same,MIC,[4],≥ 500 µg/mL
COc1cc(-c2nnnn2S(=O)(=O)c2ccc(C)cc2)ccc1OCC(O)(Cn1cncn1)c1ccc(F)cc1F (centres undefined),IC50,[5],> 150 µg/mL
COc1ccc(C(=O)Nc2ccc(-c3nnn(CC(=O)Nc4cc(C)on4)n3)cc2)cc1,IC50,[10],> 10 µM
same,IC50,[11],6.67 to 43.9 µM
same,IC50,[12],6.67 to 43.9 µM
O=C(Cn1nnnc1-c1ccccc1)NN1C(=O)C(Cl)C1c1ccc(Cl)cc1 (centres undefined),MIC,[9],> 6.25 µg/mL
COc1ccc(NC(=O)Cn2nnc(-c3ccccc3NC(=O)c3cc(OC)cc(OC)c3)n2)cc1,IC50,[10],> 10 µM
same,IC50,[11],6.67 to 43.9 µM
same,IC50,[12],6.67 to 43.9 µM
COc1cc(-c2nnnn2S(=O)(=O)c2ccc(C(C)(C)C)cc2)ccc1OCC(O)(Cn1cncn1)c1ccc(F)cc1F (centres undefined),IC50,[5],> 150 µg/mL
same,MIC,[6],1.56 µg/mL
COc1ccc(NC(=O)Cn2nnc(-c3ccccc3NS(=O)(=O)c3ccc(NC(C)=O)cc3)n2)cc1,IC50,[10],> 10 µM
same,IC50,[11],6.67 to 43.9 µM
same,IC50,[12],6.67 to 43.9 µM
CCCCOc1ccc(-c2nnn(CC(=O)Nc3c(C)ccc4ccccc34)n2)cc1,IC50,[10],> 10 µM
same,IC50,[11],6.67 to 43.9 µM
same,IC50,[12],6.67 to 43.9 µM
c1ccc(-n2nnnc2OCC2CCC3(CC2)OOC2(O3)C3CC4CC(C3)CC2C4)cc1 (centres undefined),IC50,[7],0.0021 to 0.0244 µM
same,IC50,[8],0.0021 to 0.0244 µM
Cc1ccc(C2C(Cl)C(=O)N2NC(=O)Cn2nnnc2-c2ccccc2)cc1 (centres undefined),MIC,[9],> 6.25 µg/mL
COc1ccc(C(=O)Cn2nnc(-c3ccccc3NC(=O)c3ccncc3)n2)cc1,IC50,[10],> 10 µM
same,IC50,[11],6.67 to 43.9 µM
same,IC50,[12],6.67 to 43.9 µM
COc1cc(-c2nnnn2S(=O)(=O)c2ccccc2)ccc1OCC(O)(Cn1cncn1)c1ccc(Cl)cc1Cl (centres undefined),IC50,[5],> 150 µg/mL
same,MIC,[6],25 µg/mL
C[C@]12CC[C@@H]3c4ccc(OCCCCCCCSc5nnnn5-c5ccccc5)cc4CC[C@H]3[C@@H]1CCC2=O,MIC,[1],≥ 500 µg/mL
same,MIC,[2],≥ 500 µg/mL
same,MIC,[3],≥ 500 µg/mL
same,MIC,[4],≥ 500 µg/mL
Cc1ccc(-n2nnnc2S)cc1,MIC,[1],250 to 500 µg/mL
same,MIC,[2],250 to 500 µg/mL
same,MIC,[3],250 to 500 µg/mL
same,MIC,[4],250 to 500 µg/mL
Clc1ccc(-n2nnnc2SCc2ccccc2)cc1,MIC,[1],8 to 250 µg/mL
same,MIC,[2],8 to 250 µg/mL
same,MIC,[3],8 to 250 µg/mL
same,MIC,[4],8 to 250 µg/mL
